Data taken from patent US20260297087A1, “Pyridoimidazolone Compounds, Preparation Thereof and Therapeutic Uses Thereof” (Sanofi, priority 2023, published 2026).
Where two headings read alike, the source gives them in different places.

Tests used:
ERK5 = target: T1, ERK5 (Homo sapiens, UniProt Q13164); experiment: Inhibition of Cellular ERK5 Activity (cell-based assay, MEF2 luciferase reporter in SN12C cells); settings: renal cancer cell line SN12C, doxycycline-induced MEKSDD, mean where repeated
T1 construct: MEF2-luciferase reporter
T1 sequence (Q13164 whole entry): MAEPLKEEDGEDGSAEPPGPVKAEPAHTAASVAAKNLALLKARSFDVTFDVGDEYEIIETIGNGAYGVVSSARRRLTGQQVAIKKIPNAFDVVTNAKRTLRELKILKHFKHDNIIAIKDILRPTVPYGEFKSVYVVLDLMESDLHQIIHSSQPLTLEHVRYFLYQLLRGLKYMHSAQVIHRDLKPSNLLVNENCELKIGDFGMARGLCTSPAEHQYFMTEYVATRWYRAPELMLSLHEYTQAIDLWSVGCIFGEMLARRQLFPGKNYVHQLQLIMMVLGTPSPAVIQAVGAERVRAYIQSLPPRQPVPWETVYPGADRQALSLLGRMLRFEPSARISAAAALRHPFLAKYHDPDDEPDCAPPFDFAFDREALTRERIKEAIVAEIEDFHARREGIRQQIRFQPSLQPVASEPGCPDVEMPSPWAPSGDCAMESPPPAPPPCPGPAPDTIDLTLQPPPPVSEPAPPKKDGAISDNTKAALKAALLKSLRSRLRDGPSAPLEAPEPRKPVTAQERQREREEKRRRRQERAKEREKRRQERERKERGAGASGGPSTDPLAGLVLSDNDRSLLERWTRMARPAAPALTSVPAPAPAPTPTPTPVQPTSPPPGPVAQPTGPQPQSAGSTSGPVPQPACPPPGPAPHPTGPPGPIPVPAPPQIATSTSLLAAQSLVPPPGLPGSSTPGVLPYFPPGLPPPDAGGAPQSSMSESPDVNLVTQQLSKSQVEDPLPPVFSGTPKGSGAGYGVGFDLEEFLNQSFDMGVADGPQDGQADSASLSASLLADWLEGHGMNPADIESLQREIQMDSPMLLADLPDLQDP
Procedure: (§1) Two assays were performed to assess the ERK5 inhibitory activity of compounds of the Examples, a cell-based assay and a cell-free biochemical assay. Where repeat measurements were taken, the value reported is a mean average.
The renal cancer cell line SN12C was transduced by a lentivirus pGreenFire1 MEF2 EF1 Neo (ref TR030VA-N) from SBI using standard infection protocol. pGreenFire1 MEF2 EF1 Neo allows the expression of luciferase gene under the control of minimal promoter with MEF2 transcriptional response elements. Cells harboring the reporter construct were selected by geneticin treatment. The selected cells were then transposed by a piggyback based plasmid pCM4007 allowing the expression of constitutively activated MEKSDD under control of TREG3 promoter, a doxycycline regulated promoter. Transposed cells were selected by puromycin treatment. Upon doxycycline treatment (1p g/ml) MEKSDD was expressed. MEKSDD activates ERK5 that phosphorylates MEF2C protein. Activated MEF2C protein can bind to its transcriptional response elements. Then the luciferase is expressed. In a 96-well plate (96F nuncleon refl37101 thermofisher), 50,000 cells were inoculated in 142.5 μl of RPMI medium containing 10% fetal calf serum, 1% glutamine, and 1 μg/ml doxycycline. After 24 hours, compounds were added in 7.5 μl culture medium (with 2% DMSO to give a final concentration of 0.1%) in order to obtain the desired concentration (0.3-1000 nM). The luciferase activity was measured using the Kit Bright Glo Luminescent Cell Assay Cat E2610 (Promega) according to the manufacturer's protocol. Luminescence was determined using 0.2 second reading/well using a Tecan SPARK. IC50 values were calculated using XLFIT5 for Microsoft Excel using method 205. The IC50 values represent the concentration of compound which inhibits the measurable luminescence signal by 50% as compared to DMSO-treated control cells.

[1] = target: T2, ERK5 (activated catalytic domain) (Homo sapiens, UniProt Q13164); experiment: Cell-Free Assay of ERK5 Inhibition (Time-Resolved FRET, 4EBP1 peptide phosphorylation); assay type: biochemical
T2 construct: purchased CarnaBiosciences 04-146
T2 sequence (Q13164 55-347 limits assumed): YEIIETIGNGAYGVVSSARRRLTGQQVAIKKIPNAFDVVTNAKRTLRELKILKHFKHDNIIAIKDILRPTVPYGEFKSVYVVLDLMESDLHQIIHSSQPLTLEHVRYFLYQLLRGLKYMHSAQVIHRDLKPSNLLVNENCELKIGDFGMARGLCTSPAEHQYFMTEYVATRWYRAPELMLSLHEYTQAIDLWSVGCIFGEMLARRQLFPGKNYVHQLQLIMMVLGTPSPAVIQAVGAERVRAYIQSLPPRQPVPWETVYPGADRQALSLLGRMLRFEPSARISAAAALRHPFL
Procedure: as §1
An assay was performed to measure the capacity of each compound to inhibit ERK5 enzymatic activity. Compound potency was evaluated by Time-Resolved Forster Resonance Energy Transfer (FRET system). The activated catalytic domain of protein ERK5 (CarnaBiosciences #04-146) was mixed at 4 nM with varying concentrations of compound and incubated for 30 minutes at room temperature. A mixture of 1 mM ATP and 1 μM biotinylated synthetic peptide was added (Biosyntan GmbH). This synthetic peptide represents amino acids 30-52 of Eukaryotic translation initiation factor 4E-binding protein 1 (see, e.g., the sequence under accession No. NP_004086.1) biotinylated at the N-terminus. After 30 minutes at 37° C., the peptide phosphorylation by ERK5 was measured by addition of FRET reagents consisting of 12.5 μg/ml Streptavidin-XL665, 1 nM Anti-P-4EBP1 antibody and 300 ng/ml Anti-rabbit-K antibody. Following 90 minutes at room temperature fluorescent signals were read on the Pherastar FSX multimod detector from BMG Labtech (Exc° 340 nm, Em1 620 nm, Em2 665 nm). The IC50 values represent the concentration of compound which inhibits the measurable fluorescence signal by 50% as compared to the DMSO only control.

[2] = ERK5 catalytic domain 4 nM, 1 mM ATP, 1 μM biotinylated 4EBP1 peptide, 30 min at 37° C., mean where repeated, read-out: Cell-free assay (IC50 in nM)

IC50 (ERK5) | IC50 [1, 2] | IC50 ([1]; footnote: repeat measurement, mean average value, read-out: Cell-free assay IC50, repeat measurement) | Structure (SMILES)
222 nM | 288 nM |  | O=C(c1ccc(OC(F)(F)F)cc1)N1CCC(n2c(=O)[nH]c3ncc([C@H]4CC[C@@H](O)CC4)cc32)CC1 [Example 58, cis-6-(4-hydroxycyclohexyl)-1-[1-[4-(trifluoromethoxy)benzoyl]-4-piperidyl]-3H-imidazo[4,5-b]pyridin-2-one]
204 nM | 180 nM |  | O=C(c1ccc(OC(F)(F)F)cc1)N1CCC(n2c(=O)[nH]c3ncc([C@H]4CC[C@H](O)CC4)cc32)CC1 [Example 57, trans-6-(4-hydroxycyclohexyl)-1-[1-[4-(trifluoromethoxy)benzoyl]-4-piperidyl]-3H-imidazo[4,5-b]pyridine-2-one]
75 nM | 117 nM |  | Nc1cc(OC(F)(F)F)ccc1C(=O)N1CCC(n2c(=O)[nH]c3ncc(CC4CCOCC4)cc32)CC1 [Example 39, 1-[1-[2-amino-4-(trifluoromethoxy)benzoyl]-4-piperidyl]-6-(tetrahydropyran-4-ylmethyl)-3H-imidazo[4,5-b]pyridin-2-one]
244 nM | 97 nM |  | Nc1cc(OC(F)(F)F)ccc1C(=O)N1CCC(n2c(=O)[nH]c3ncc([C@H]4CC[C@@H](O)CC4)cc32)CC1 [Example 52, cis-1-[1-[2-amino-4-(trifluoromethoxy)benzoyl]-4-piperidyl]-6-(4-hydroxycyclohexyl)-3H-imidazo[4,5-b]pyridin-2-one]
278 nM | 587 nM |  | Nc1cc(S(F)(F)(F)(F)F)ccc1C(=O)N1CCC(n2c(=O)[nH]c3ncc(C4CCOCC4)cc32)C1 (racemic) [Example 49, (rac)-1-[1-[2-amino-4-(pentafluoro-λ^6-sulfanyl)benzoyl]pyrrolidin-3-yl]-6-tetrahydropyran-4-yl-3H-imidazo[4,5-b]pyridin-2-one]
83 nM | 87 nM |  | Nc1cc(OC(F)(F)F)ccc1C(=O)N1CCC(n2c(=O)[nH]c3ncc(OC4CCOC4)cc32)CC1 (racemic) [Example 55, (rac)-1-[1-[2-amino-4-(trifluoromethoxy)benzoyl]-4-piperidyl]-6-[tetrahydrofuran-3-yl]oxy-3H-imidazo[4,5-b]pyridin-2-one]
136 nM | 354 nM |  | O=C(c1ccc(OC(F)(F)F)cc1)N1CCC(n2c(=O)[nH]c3ncc(CC4COC4)cc32)CC1 [Example 42, 6-(oxetan-3-ylmethyl)-1-[1-[4-(trifluoromethoxy)benzoyl]-4-piperidyl]-3H-imidazo[4,5-b]pyridin-2-one]

More lines, now with the values behind:

Structure (SMILES) | IC50 (ERK5) | IC50 [1, 2] | IC50 ([1]; footnote: repeat measurement, mean average value, read-out: Cell-free assay IC50, repeat measurement)
Nc1cc(OC(F)(F)F)ccc1C(=O)N1CCC(n2c(=O)[nH]c3ncc(C4CCCCO4)cc32)CC1 (racemic) [Example 38, (rac)-1-[1-[2-amino-4-(trifluoromethoxy)benzoyl]-4-piperidyl]-6-tetrahydropyran-2-yl-3H-imidazo[4,5-b]pyridin-2-one] | 541 nM | 1470 nM | 
Nc1cc(OC(F)(F)F)ccc1C(=O)N1CCC(n2c(=O)[nH]c3ncc(CC4CCOC4)cc32)CC1 (racemic) [Example 23, (rac)-1-[1-[2-amino-4-(trifluoromethoxy)benzoyl]-4-piperidyl]-6-(tetrahydrofuran-3-ylmethyl)-3H-imidazo[4,5-b]pyridin-2-one] | 184 nM | 86 nM | 
Nc1cc(OC(F)(F)F)ccc1C(=O)N1CCC(n2c(=O)[nH]c3ncc(C45CCOCC4C5)cc32)CC1 (racemic) [Example 31, (rac)-1-[1-[2-amino-4-(trifluoromethoxy)benzoyl]-4-piperidyl]-6-(3-oxabicyclo[4.1.0]heptan-6-yl)-3H-imidazo[4,5-b]pyridin-2-one] | 170 nM | 288 nM | 
Nc1cc(OC(F)(F)F)ccc1C(=O)N1CCC(n2c(=O)[nH]c3ncc(N4CCOCC4)cc32)CC1 [Example 3, 1-[1-[2-amino-4-(trifluoromethoxy)benzoyl]-4-piperidyl]-6-N-morpholino-3H-imidazo[4,5-b]pyridin-2-one] | 72 nM | 77 nM | 
CO[C@H]1CC[C@@H](c2cnc3[nH]c(=O)n(C4CCN(C(=O)c5ccc(OC(F)(F)F)cc5)CC4)c3c2)CC1 [Example 27, cis-6-(4-methoxycyclohexyl)-1-[1-[4-(trifluoromethoxy)benzoyl]-4-piperidyl]-3H-imidazo[4,5-b]pyridin-2-one] | 536 nM | 1180 nM | 
Nc1cc(OC(F)(F)F)ccc1C(=O)N1CCC(n2c(=O)[nH]c3ncc(C45CCCCC4C5)cc32)CC1 (racemic) [Example 34, (rac)-1-[1-[2-amino-4-(trifluoromethoxy)benzoyl]-4-piperidyl]-6-norcaran-1-yl-3H-imidazo[4,5-b]pyridin-2-one] | 217 nM | 974 nM | 
O=C(c1ccc(OC(F)(F)F)cc1)N1CCC(n2c(=O)[nH]c3ncc(N4CCO[C@H](CO)C4)cc32)CC1 [Example 12, 6-[(2S)-2-(Hydroxymethyl)morpholin-4-yl]-1-[1-[4-(trifluoromethoxy)benzoyl]-4-piperidyl]-3H-imidazo[4,5-b]pyridin-2-one] | 1860 nM | 442 nM | 
Nc1cc(OC(F)(F)F)ccc1C(=O)N1CCC(n2c(=O)[nH]c3ncc(C4CCOC4)cc32)CC1 (racemic) [Example 16, (rac)-1-[1-[2-Amino-4-(trifluoromethoxy)benzoyl]-4-piperidyl]-6-tetrahydrofuran-3-yl-3H-imidazo[4,5-b]pyridin-2-one] | 138 nM | 85 nM | 
Nc1cc(OC(F)(F)F)ccc1C(=O)N1CCC(n2c(=O)[nH]c3ncc(C45CC(C(F)(F)F)(C4)C5)cc32)CC1 [Example 30, 1-[1-[2-amino-4-(trifluoromethoxy)benzoyl]-4-piperidyl]-6-[3-(trifluoromethyl)-1-bicyclo[1.1.1]pentanyl]-3H-imidazo[4,5-b]pyridin-2-one] | 310 nM | 15300 nM | 
CN1CCC(Oc2cnc3[nH]c(=O)n(C4CCN(C(=O)c5ccc(OC(F)(F)F)cc5N)CC4)c3c2)CC1 [Example 7, 1-[1-[2-amino-4-(trifluoromethoxy)benzoyl]-4-piperidyl]-6-[(1-methyl-4-piperidyl)oxy]-3H-imidazo[4,5-b]pyridin-2-one] | 248 nM | 63 nM | 
Nc1cc(OC(F)(F)F)ccc1C(=O)N1CCC(n2c(=O)[nH]c3ncc(C4CCCO4)cc32)CC1 (racemic) [Example 25, (rac)-1-[1-[2-amino-4-(trifluoromethoxy)benzoyl]-4-piperidyl]-6-tetrahydrofuran-2-yl-3H-imidazo[4,5-b]pyridin-2-one] | 57 nM | 377 nM | 
Nc1cc(OC(F)(F)F)ccc1C(=O)N1CCC(n2c(=O)[nH]c3ncc(C4CCCCC4)cc32)CC1 [Example 36, 1-[1-[2-amino-4-(trifluoromethoxy)benzoyl]-4-piperidyl]-6-cyclohexyl-3H-imidazo[4,5-b]pyridin-2-one] | 285 nM | 888 nM | 
O=C(c1ccc(OC(F)(F)F)cc1O)N1CCC(n2c(=O)[nH]c3ncc(C4CCOCC4)cc32)CC1 [Example 18, 1-[1-[2-Hydroxy-4-(trifluoromethoxy)benzoyl]-4-piperidyl]-6-tetrahydropyran-4-yl-3H-imidazo[4,5-b]pyridin-2-one] | 90 nM | 54 nM | 82 nM
Nc1cc(OC(F)(F)F)ccc1C(=O)N1CCC(n2c(=O)[nH]c3ncc(C4CCC(F)(F)CC4)cc32)CC1 [Example 35, 1-[1-[2-amino-4-(trifluoromethoxy)benzoyl]-4-piperidyl]-6-(4,4-difluorocyclohexyl)-3H-imidazo[4,5-b]pyridin-2-one] | 205 nM | 695 nM | 
Nc1cc(OC(F)(F)F)ccc1C(=O)N1CCC(n2c(=O)[nH]c3ncc(C45CCC(C4)C5)cc32)CC1 [Example 32, 1-[1-[2-amino-4-(trifluoromethoxy)benzoyl]-4-piperidyl]-6-(1-bicyclo[2.1.1]hexanyl)-3H-imidazo[4,5-b]pyridin-2-one] | 347 nM | 1140 nM | 
